According to patent US11667638B2, “4-substitued cytisine analogues” (The University of Bristol, priority 2016, dated 2023):

Key:
[1] = target: (α4)3(β2)2 nAChRs (Homo sapiens (Human), UniProt P17787+P43681); assay: Maximal gating efficacy on (α4)3(β2)2 nAChRs in Xenopus oocytes, two electrode voltage clamp; assay type: cell-based; details: (α4)3(β2)2, low sensitivity stoichiometry; maximal current relative to 1 mM ACh
Protocol: (§1) Compounds of the invention were tested for effects on the function of human α4β2, α3β4 and α7 nicotinic acetylcholine receptors (nAChRs) expressed heterologously in Xenopus oocytes. […] Expression in oocytes was obtained as follows: pCI (Promega, UK) plasmid containing human α4, β2, β4 or α7 complementary DNA were injected as previously described (Moroni et al., 2006). To express (α4)3(β2)2 nACh receptors, a mixture of 10α4:1β2 cDNAs was injected into the nucleus of oocytes, whereas for (α4)2(β2)3 receptors the cDNA ratio injected was 1α4:10β2.
(§2) Functional studies: Recordings were performed manually using a Geneclamp amplifier (Molecular Devices, USA) or using an automated HiClamp system. In both cases the oocytes were impaled with two electrodes filled with 3 M KCl and the cells were held at −60 mV throughout the experiments.
(§3) Oocyte isolation and two-electrode voltage-clamp recordings on oocytes were carried out as previously described (Moroni et al., 2006; Carbone et al., 2009). […] A minimum interval of 5 min was allowed between agonist applications to ensure reproducible recordings. Oocytes were exposed to increasing concentrations of the compounds until no further increases in the response amplitude were obtained. This concentration was taken as the concentration that causes maximal responses on the receptors tested. The data summarised in Tables 1-4 were obtained from at least 5 experiments carried out on oocytes obtained from at least three different donors.
Maximal gating efficacy of the compounds: The concentration of the compounds of the invention causing maximal activation of the (α4)3(β2)2 nAChRs expressed heterologously in Xenopus oocytes was determined using two electrode voltage clamping.

[2] = target: Rat α7 (Rattus norvegicus (Rat), UniProt Q05941); assay type: binding; details: range printed after the value
Rat α7, sequence (Q05941 23-502 limits assumed): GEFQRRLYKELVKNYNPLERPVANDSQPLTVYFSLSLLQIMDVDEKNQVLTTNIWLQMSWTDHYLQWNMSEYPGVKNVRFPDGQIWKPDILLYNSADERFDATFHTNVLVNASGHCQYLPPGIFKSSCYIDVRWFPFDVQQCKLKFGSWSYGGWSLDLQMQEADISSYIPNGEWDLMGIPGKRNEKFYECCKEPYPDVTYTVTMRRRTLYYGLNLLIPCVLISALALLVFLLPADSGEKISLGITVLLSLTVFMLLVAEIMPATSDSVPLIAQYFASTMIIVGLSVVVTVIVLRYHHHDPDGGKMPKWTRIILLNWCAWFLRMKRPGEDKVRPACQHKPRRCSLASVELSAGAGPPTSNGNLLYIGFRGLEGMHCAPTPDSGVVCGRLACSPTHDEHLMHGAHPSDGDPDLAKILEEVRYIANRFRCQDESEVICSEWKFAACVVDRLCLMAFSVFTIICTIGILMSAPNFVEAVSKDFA
Protocol: (§4) The ligand binding data were analyzed by means of nonlinear regression using Prism version 5 (GraphPad Software, Inc., La Jolla, Calif.). The Ki values were calculated from the experimental IC50 values using the Cheng-Prusoff equation for a single population of competitive sites: Ki=IC50/[1+(L/Kd)], where L is the concentration of radioligand used in each experiment and the Kd values were determined by saturation binding experiment. All of the assays were performed in duplicate and repeated at least two-three times.

[3] = target: (α4)2(β2)3 nAChRs (Homo sapiens (Human), UniProt P17787+P43681); assay: Maximal gating efficacy on (α4)2(β2)3 nAChRs in Xenopus oocytes, two electrode voltage clamp; assay type: cell-based; details: (α4)2(β2)3, high sensitivity receptors; maximal current relative to 1 mM ACh
(α4)2(β2)3 nAChRs, sequence (P43681 29-627): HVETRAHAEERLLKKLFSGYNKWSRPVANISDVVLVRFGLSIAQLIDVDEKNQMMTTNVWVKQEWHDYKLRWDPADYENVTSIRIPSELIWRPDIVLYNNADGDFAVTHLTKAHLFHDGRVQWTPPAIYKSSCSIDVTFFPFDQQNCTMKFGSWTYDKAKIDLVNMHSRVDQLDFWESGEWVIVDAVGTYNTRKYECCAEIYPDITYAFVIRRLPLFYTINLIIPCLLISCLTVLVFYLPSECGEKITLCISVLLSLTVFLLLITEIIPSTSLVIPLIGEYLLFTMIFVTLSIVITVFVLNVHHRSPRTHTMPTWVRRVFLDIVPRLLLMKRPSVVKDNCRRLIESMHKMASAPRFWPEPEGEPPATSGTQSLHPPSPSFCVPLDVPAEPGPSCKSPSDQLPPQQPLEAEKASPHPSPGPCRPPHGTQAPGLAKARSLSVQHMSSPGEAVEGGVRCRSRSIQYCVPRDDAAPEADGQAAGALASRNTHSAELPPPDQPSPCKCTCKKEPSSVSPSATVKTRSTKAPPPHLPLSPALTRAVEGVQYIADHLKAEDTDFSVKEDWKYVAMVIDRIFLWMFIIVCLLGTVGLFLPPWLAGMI
(α4)2(β2)3 nAChRs, sequence (P17787 26-502): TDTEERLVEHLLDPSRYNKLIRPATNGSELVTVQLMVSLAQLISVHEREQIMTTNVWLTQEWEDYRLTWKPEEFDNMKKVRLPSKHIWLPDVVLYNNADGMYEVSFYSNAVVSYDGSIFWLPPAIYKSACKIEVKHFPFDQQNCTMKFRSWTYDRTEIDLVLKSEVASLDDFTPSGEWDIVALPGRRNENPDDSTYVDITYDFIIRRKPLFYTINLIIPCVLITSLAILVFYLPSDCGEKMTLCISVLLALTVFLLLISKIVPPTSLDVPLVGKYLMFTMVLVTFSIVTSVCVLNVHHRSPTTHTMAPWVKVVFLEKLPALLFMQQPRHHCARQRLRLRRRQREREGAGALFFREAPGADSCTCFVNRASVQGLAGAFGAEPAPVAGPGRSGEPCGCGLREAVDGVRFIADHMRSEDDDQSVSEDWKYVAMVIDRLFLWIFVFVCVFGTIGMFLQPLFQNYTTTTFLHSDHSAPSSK
Protocol: as §1, §2, §3
Maximal gating efficacy of compounds on (α4)2(β2)3 receptors (high sensitivity receptors): The concentration of the compounds causing maximal activation of the (α4)2(β2)3 nAChRs expressed heterologously in Xenopus oocytes was determined using two electrode voltage clamping.

[4] = target: α3β4 nAChRs (Homo sapiens (Human), UniProt P30926+P32297); assay: Maximal gating efficacy on α3β4 nAChRs in Xenopus oocytes, two electrode voltage clamp; assay type: cell-based; details: maximal current relative to 1 mM ACh
α3β4 nAChRs, sequence (P32297 32-505): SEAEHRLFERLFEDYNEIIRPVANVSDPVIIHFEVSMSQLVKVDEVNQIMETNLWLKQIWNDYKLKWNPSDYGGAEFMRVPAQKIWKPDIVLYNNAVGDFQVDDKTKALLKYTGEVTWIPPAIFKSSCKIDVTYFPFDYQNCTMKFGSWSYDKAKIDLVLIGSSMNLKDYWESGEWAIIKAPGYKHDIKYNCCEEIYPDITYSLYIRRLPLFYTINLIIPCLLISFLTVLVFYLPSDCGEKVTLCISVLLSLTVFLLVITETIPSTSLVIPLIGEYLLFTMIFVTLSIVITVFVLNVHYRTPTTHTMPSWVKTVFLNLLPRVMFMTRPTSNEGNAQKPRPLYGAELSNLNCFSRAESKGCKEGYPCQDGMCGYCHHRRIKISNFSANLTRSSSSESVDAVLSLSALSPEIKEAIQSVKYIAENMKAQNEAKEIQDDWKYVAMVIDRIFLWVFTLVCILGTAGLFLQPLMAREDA
α3β4 nAChRs, sequence (P30926 22-498): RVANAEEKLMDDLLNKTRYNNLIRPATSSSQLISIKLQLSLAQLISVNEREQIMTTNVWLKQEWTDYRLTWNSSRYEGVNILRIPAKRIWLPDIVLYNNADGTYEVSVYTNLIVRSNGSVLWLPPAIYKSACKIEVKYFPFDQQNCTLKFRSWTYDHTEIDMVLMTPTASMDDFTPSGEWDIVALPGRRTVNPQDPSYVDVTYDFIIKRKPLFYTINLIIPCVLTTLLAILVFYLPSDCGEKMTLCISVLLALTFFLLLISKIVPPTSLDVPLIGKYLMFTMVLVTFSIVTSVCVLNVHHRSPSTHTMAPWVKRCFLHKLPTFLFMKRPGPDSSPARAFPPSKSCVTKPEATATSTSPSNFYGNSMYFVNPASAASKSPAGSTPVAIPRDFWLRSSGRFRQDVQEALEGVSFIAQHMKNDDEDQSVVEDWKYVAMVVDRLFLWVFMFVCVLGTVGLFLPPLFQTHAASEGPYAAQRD
Protocol: as §1, §2, §3
Maximal gating efficacy of the compounds on α3β4 nAChRs: The concentration of the compounds causing maximal activation of α3β4 nAChRs expressed heterologously in Xenopus oocytes was determined using two electrode voltage clamping.

[5] = target: Human α7 (Homo sapiens (Human), UniProt P36544); assay type: binding; details: read-out: Human α7 K(i)
Human α7, sequence (P36544 23-502 limits assumed): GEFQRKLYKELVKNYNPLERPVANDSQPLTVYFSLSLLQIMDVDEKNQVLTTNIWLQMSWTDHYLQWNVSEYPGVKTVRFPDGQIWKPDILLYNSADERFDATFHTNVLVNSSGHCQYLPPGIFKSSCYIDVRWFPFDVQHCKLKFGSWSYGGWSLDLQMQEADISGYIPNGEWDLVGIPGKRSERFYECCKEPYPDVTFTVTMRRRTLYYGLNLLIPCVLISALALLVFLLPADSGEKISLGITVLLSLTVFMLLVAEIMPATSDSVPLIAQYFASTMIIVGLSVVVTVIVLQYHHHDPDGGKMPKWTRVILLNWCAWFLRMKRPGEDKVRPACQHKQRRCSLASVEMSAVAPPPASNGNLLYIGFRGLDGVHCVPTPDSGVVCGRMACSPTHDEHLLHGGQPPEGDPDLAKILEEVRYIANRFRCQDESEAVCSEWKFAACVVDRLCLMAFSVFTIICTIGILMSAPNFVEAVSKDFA

[6] = target: α4β2 nAChR (Homo sapiens (Human), UniProt P17787+P43681); assay type: binding
α4β2 nAChR, sequence (P43681 29-627 limits assumed): as the sequence (P43681 29-627) above
α4β2 nAChR, sequence (P17787 26-502 limits assumed): as the sequence (P17787 26-502) above
Protocol: (§5) HEK 293 cells were grown in Dulbecco's modified Eagle medium supplemented with 10% fetal bovine serum, 1% L-Glutamine, 100 units/ml penicillin G, and 100 μg/streptomycin in a humidified atmosphere containing 10% CO2. The cDNAs encoding α3 and β4 or α4 and β2 (were transfected into the HEK 293 cells at 30% confluency). The cell transfections were carried out in 100 mm Petri dishes using 30 μL of JetPEI™ (Polypus, France) (1 mg/ml, pH 7.2) and 3 μg of each cDNA. After 24 h transfection, the cells were collected, washed with PBS by centrifugation, and used for binding analysis.
(§6) [^3H]-epibatidine saturation binding experiments to HEK transfected α3β4 or α4β2 receptors were performed by means of overnight incubation at 4° C. at concentrations ranging from 0.005 to 1 nM in a buffer containing 50 mM Tris-HCl, pH 7, 150 mM NaCl, 5 mM KCl, 1 mM MgCl2, 2.5 mM CaCl2 and 2 mg/ml BSA, in the presence (aspecific binding) or absence (total binding) of 100 nM cold epibatidine. Specific ligand binding was defined as total binding minus the binding in the presence of 100 nM cold epibatidine.
(§7) After incubation, the membranes of HEK cells transfected with α4β2* or α3β4 subtypes were washed by filtration on GFC filters with ice-cold PBS. The GFC filters were pre-soaked in polyethylenimine and filtered through an harvester apparatus. [^3H]-epibatidine binding was determined by means of liquid scintillation counting in a beta counter.
as §4

[7] = target: α3β4 nAChR (Homo sapiens (Human), UniProt P30926+P32297); assay type: binding; details: human α3β4 in HEK 293, 0.5 nM [3H]-epibatidine; range printed after the value
α3β4 nAChR, sequence (P32297 32-505 limits assumed): as the sequence (P32297 32-505) above
α3β4 nAChR, sequence (P30926 22-498 limits assumed): as the sequence (P30926 22-498) above
Protocol: as §5, §6, §7, §4

(α4)3(β2)2 nAChRs, sequence (P43681 29-627): as the sequence (P43681 29-627) above
(α4)3(β2)2 nAChRs, sequence (P17787 26-502): as the sequence (P17787 26-502) above

O=c1cccc2n1C[C@@H]1CNC[C@H]2C1 [Cytisine, cytisine]
Relative efficacy (ACh) [1]: 0.19 ± 0.07
Ki [2]: 662 nM
Relative efficacy (ACh) [3]: 0.02 ± 0.001
Relative efficacy (ACh) [4]: 0.54 ± 0.01
Ki [5]: 691 nM
Ki ([6]; human α4β2 in HEK 293, 0.25 nM [3H]-epibatidine, range printed after the value): 1.27 nM
Ratio α3β4/α4β2 ([6]; ratio of Ki values): 81.1
Ki [7]: 103 nM
